Experimental data as given in patent publication US7390783B2, “Charged phospholipid compositions and methods for their use” (Ottawa Heart Institute Research Corporation, priority 2000, dated 2008).
“Also recorded” adds a separate entry of the source. Each block holds one molecule with its values, some of them ahead of it.

Columns and labels:
HDL, LDL and VLDL = test: Lipoprotein surface charge after injection of PI or PC vesicles into rabbits (agarose gel electrophoresis); type: in vivo, rabbit; details: intravenous injection of vesicles, fasted rabbit
Procedure: (§1) 1-palmitoyl-2-oleoyl-phosphatidylcholine (PC) and 1-palmitoyl-2-oleoyl phosphatidylinositol (PI) vesicles are prepared by drying to completion 40 μmol of each lipid into a 12×75 mm culture tube under N2. The lipids are solubilized in 3 mL of sterile saline comprising 150 mM sodium chloride (pH 7.2) by sonication for 1 minute at constant duty cycle. The vesicles are incubated at 37° C. for 10 minutes and then sonicated at a high output for 4 minutes in 10° C. water bath under N2. In order to determine the rate of clearance of cholesterol from the test animals (rabbits), a radioactive tracer is added to the vesicle preparations prior to injection into the rabbit. 200 μL of 1 μCi/μmL [^3H]-FC is dried into a 12×75 mm culture tube with 40 μmol of PI or POPC. 3 ml of PBS is added to the dried lipids and the mixture is sonicated as described above. This tracer/vesicle preparation is injected and then 5 min later, the PI or PC vesicles were injected and blood is sampled as described below.
(§2) Male New Zealand white rabbits (3.5-4.0 kg) are fasted for 12 hours prior to injection and remain fasted until after data for the final time point is taken. Rabbits have free access to water during this time. A catheter is inserted into the marginal ear vein and blood samples are collected into tubes containing 7.5% (K3) EDTA solution at the desired time points. A pre-injection blood sample is taken and the vesicle solution of either PI (n=4), or PC (n=2) or saline (n=1) is injected into the marginal ear vein. A sample of blood is removed at 10, 30 min, 1, 3, 6 and 24 h after the injection. All blood samples are placed on ice and then centrifuged at 3000 rpm for 15 min at 4° C. to separate the plasma. In order to ensure that lecithin:cholesterol acyl transferase (LCAT) is inhibited in the stored plasma, iodoacetamide (150 mM) is added to plasma samples as taught by Guerin et al. (1994).
Lipoprotein fractions are isolated by sequential ultracentrifugation (VLDL+IDL, d<1.019 g/mL; LDL, d=1.019-1.063 g/mL; and HDL, d=1.063-1.21 g/mL) as known to one of skill in the art, and lipoprotein lipid composition (total cholesterol, free cholesterol (FC), and triglyceride (TG) concentrations) are determined enzymatically using kits from Roche Diagnostic (Laval, PQ). An aliquot of each lipoprotein isolated is dialysed into PBS and its surface charge characteristics were determined by electrophoresis on pre-cast 0.5% agarose gels using the procedure of Sparks and Phillips (1992).
Referring now to FIG. 1, there is illustrated the effect of injection of PI and PC vesicles on the estimated surface potential of HDL, LDL, and VLDL proteins in vivo. […] PC, which is a neutral phospholipid, may also bind to the lipoproteins. However since PC is a neutral phospholipid, no significant change in the migration of the lipoproteins is observed. The increased migratory property of lipoproteins in a gel peaks following injection of PI and returns to normal by about 24 hours. […] Similarly, the VLDL fraction is estimated to have an initial surface potential of about −8.8 mV, which increases to about −11.2 mV after 10 minutes. LDL is estimated to have an initial surface potential of about −3.9 mV, and peaks about 60 min after the PI injection at about −8.0 mV.

[1] = biological target: T1, lecithin:cholesterol acyltransferase (LCAT) (Oryctolagus cuniculus, UniProt P53761); test: Plasma cholesterol esterification by LCAT after injection of PC or PI; type: in vivo, rabbit; details: after injection of vesicles
T1 construct: endogenous LCAT activity is reduced to about 18% that of normal; from tissue; host or cells: plasma of PI- or PC-injected rabbits
T1 sequence (P53761 25-440): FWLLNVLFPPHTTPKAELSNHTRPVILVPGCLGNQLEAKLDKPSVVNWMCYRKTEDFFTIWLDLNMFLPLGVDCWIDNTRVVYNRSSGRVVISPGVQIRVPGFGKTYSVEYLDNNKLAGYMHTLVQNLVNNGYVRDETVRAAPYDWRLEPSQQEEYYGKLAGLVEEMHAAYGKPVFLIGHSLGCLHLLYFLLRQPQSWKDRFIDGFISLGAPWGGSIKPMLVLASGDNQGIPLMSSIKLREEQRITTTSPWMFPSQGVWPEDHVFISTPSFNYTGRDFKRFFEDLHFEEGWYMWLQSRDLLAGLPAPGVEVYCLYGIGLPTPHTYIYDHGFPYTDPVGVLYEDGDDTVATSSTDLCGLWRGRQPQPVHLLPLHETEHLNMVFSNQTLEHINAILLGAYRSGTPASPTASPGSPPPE
Procedure: Male New Zealand white rabbits (3.5-4.0 kg) are fasted for 12 hours prior to injection and remain fasted until after data for the final time point is taken. Rabbits have free access to water during this time. A catheter is inserted into the marginal ear vein and blood samples are collected into tubes containing 7.5% (K3) EDTA solution at the desired time points. A pre-injection blood sample is taken and the vesicle solution of either PI (n=4), or PC (n=2) or saline (n=1) is injected into the marginal ear vein. A sample of blood is removed at 10, 30 min, 1, 3, 6 and 24 h after the injection. All blood samples are placed on ice and then centrifuged at 3000 rpm for 15 min at 4° C. to separate the plasma. In order to ensure that lecithin:cholesterol acyl transferase (LCAT) is inhibited in the stored plasma, iodoacetamide (150 mM) is added to plasma samples as taught by Guerin et al. (1994). The effect of PI on LCAT activity is examined using plasma samples that are not treated with iodoacetamide. 400 μL aliquots of plasma for each time point are incubated for 30 min with 10 μCi of [^3H]-FC on filter paper discs (Dobiasova et al., 1991) at 37° C. and the reaction is terminated with the addition of 2 mL ethanol. Reaction products are extracted in hexane and the amount of [^3H] associated with CE and FC is determined by thin layer chromatography. […] However, endogenous LCAT activity is reduced to about 18% that of normal (PC injected control) after about 10 min post injection of PI. Also, PI injection reduces the fractional rate of cholesterol esterification from about 45% to about 8%, of initial values, per hour. […] To investigate the effect of PI on the production and transport of CE in the plasma, the amount of radioactive CE was measured at each time point (data not shown). […] Rather it appears that PI may modify intravascular cholesterol levels by mobilizing a cellular cholesterol pool.

[2] = test system: lipoprotein CE and FC in whole blood (red blood cells); test: Incubation of whole blood with PC or PI vesicles: lipoprotein CE and FC; type: cell-based, human
Procedure: Referring now to FIG. 4, there is graphically depicted the effect of PI or PC vesicles on lipoprotein CE and FC. Incubation of whole blood with PC vesicles results in a 60% increase in the CE content of the lipoproteins, while FC content is reduced by about 10%. […] Negatively charged phospholipids appeared to promote a reciprocal exchange of CE for FC between red blood cells and the lipoprotein particles. […] It has previously been taught that red blood cells cannot store CE and therefore utilize a membrane-bound CE hydrolase to maintain membrane FC levels. Without wishing to be bound by theory, the results therefore indicate that PI stimulates the degradation of lipoprotein CE.

[^3H]-FC in plasma = Clearance of [^3H]-FC from the blood of a rabbit; type: in vivo
Procedure: as §1, §2
Referring now to FIG. 5, there is shown the clearance of [^3H]-FC at various times after rabbits are injected with [^3H]-FC and either PI or PC vesicles. […] In comparison, rabbits injected with PC contain approximately 90% of the injected radioactivity after 1 h.

[3] = test system: faecal cholesterol output; test: Faecal cholesterol excretion after PI or PC injection; type: in vivo, rabbit; details: injection into a rabbit
Procedure: Rabbits are injected with 40 μmol PI or PC vesicles containing 400 μCi […]. Animals are sacrificed at 30 min, and bile is aspirated from the gall bladder. In addition the livers are harvested, homogenized and tissue radioactivity determined. Sterol excretion in the faeces is measured similarly except that faecal cholesterol levels are measured over a time period of 96 hours. Referring now to FIG. 7, there is graphically depicted the effect of PI injection associated with sterol excretion. […] PC injection into a rabbit had no effect on cholesterol excretion, while PI injection enhanced faecal cholesterol output by about 300% at 2 days post injection. The increase in cholesterol output returned to normal by about day 4.

Human plasma = test: Plasma clotting time (prothrombin time); type: biochemical; details: human plasma incubated with increasing amounts of vesicles, 24 h at 4° C.
Procedure: Referring now to FIG. 11, there is shown the effect of charged lipid on blood coagulation. Human plasma was incubated with various amounts of uncharged vesicles, phosphatidylcholine (PC) or anionic vesicles, phosphatidylinositol (PI), for 24 h at 4° C. Prothrombin time was then measured with the use of a commercially available kit.

lipoprotein lipase = biological target: T2, lipoprotein lipase (Homo sapiens, UniProt P06858); test: Lipid hydrolysis by lipoprotein lipase in plasma enriched with charged lipid; type: biochemical; details: not shown
T2 sequence (P06858 28-475): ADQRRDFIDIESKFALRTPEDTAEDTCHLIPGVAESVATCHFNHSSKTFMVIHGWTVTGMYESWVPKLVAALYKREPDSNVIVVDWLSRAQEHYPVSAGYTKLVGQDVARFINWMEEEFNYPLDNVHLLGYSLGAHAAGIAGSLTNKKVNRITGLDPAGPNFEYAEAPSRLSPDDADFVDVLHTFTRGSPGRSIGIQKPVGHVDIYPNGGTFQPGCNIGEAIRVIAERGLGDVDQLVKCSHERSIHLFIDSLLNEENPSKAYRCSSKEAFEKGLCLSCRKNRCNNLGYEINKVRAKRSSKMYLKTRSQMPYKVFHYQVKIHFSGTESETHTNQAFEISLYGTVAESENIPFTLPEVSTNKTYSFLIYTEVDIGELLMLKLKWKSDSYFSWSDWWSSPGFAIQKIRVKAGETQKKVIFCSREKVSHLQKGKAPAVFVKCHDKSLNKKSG
From the text: Referring now to FIG. 10, there is shown the effect of lipoprotein charge on hepatic lipase. High density lipoprotein particles were enriched to contain various amounts of anionic or cationic lipids and then characterized as substrates for pure human hepatic lipase. Decreasing the net negative charge on the lipoprotein was associated with a reduction in the lipolytic activity of is hepatic lipase. Lipoprotein charge can also be used to regulate lipoprotein lipase. […] Lipid hydrolysis by hepatic or lipoprotein lipase can therefore be affected by alterations in the charge properties of plasma lipoproteins.

[4] = test system: VLDL, LDL and HDL in human plasma; test: Lipoprotein charge in human plasma incubated with PI or DOTAP vesicles; type: biochemical; details: 24 h at 4° C.; for Lipoprotein Surface Charge LDL: no lipid 2.5; for Lipoprotein Surface Charge VLDL: no lipid 5.5; for Lipoprotein Surface Charge HDL: no lipid 11.8
Procedure: Different concentrations as shown below of negatively charged phospholipid (PI) or positively charged phospholipid (DOTAP) were added to human plasma and the surface charge on the lipoproteins was determined. The human plasma was incubated with PI or dioleoyl trimethylammonium-propane (DOTAP) vesicles for 24 h at 4° C. and then electrophoresed on 0.5% agarose. Lipoprotein charge was calculated from electrokinetic analyses.

HDL = test: Oral administration of PS: HDL charge in a human subject; type: in vivo
Procedure: Referring now to FIG. 9, there is graphically depicted the results of oral administration of 300 mg of PS to a human subject. Plasma samples were drawn before, and over a 24 hour period after, administration of PS. HDL charge was determined electrokinetically after electrophoresis of the plasma samples on 0.5% agarose. […] Thus, orally administered negatively charged lipids is absorbed intestinally and alters lipoprotein charge in the blood stream.

- effect on LCAT activity / cholesteryl esterification [1]: No appreciable change
- effect on plasma clotting time (prothrombin time) (Human plasma): no significant effect
Molecule: 1-palmitoyl-2-oleoyl-phosphatidylcholine [PC, reference compound]
- effect on lipoprotein net negative surface charge / migration of HDL, LDL and VLDL into agarose gel (HDL, LDL and VLDL): negligible effect; also recorded: did not significantly affect migration
- increase in CE content of the lipoproteins [2]: 60%
- reduction of lipoprotein FC content [2]: about 10%
- [^3H]-FC in plasma, of the initial dose ([^3H]-FC in plasma; after about 1 h): approximately 90%
- time to clear [^3H]-FC to a comparable baseline level ([^3H]-FC in plasma; rabbit, in vivo): > 6 h
- effect on cholesterol excretion [3]: no effect

Molecule: CCCCCCCC/C=C\CCCCCCCC(=O)OCC(C[N+](C)(C)C)OC(=O)CCCCCCC/C=C\CCCCCCCC (centres unmarked) [DOTAP, dioleoyl trimethylammonium propane]
- effect on lipid hydrolysis by lipoprotein lipase (lipoprotein lipase): inhibited lipid hydrolysis
- Lipoprotein Surface Charge LDL ([4]; 5 mg/ml): 2.2 -mV
- Lipoprotein Surface Charge VLDL ([4]; 5 mg/ml): 4.6 -mV
- Lipoprotein Surface Charge HDL ([4]; 5 mg/ml): 11.4 -mV
- Lipoprotein Surface Charge LDL ([4]; 10 mg/ml): 1.9 -mV
- Lipoprotein Surface Charge VLDL ([4]; 10 mg/ml): 4.6 -mV
- Lipoprotein Surface Charge HDL ([4]; 10 mg/ml): 11.2 -mV
- Lipoprotein Surface Charge LDL ([4]; 50 mg/ml): 1.9 -mV
- Lipoprotein Surface Charge VLDL ([4]; 50 mg/ml): 4.1 -mV
- Lipoprotein Surface Charge HDL ([4]; 50 mg/ml): 11.0 -mV
- Lipoprotein Surface Charge LDL ([4]; 100 mg/ml): 1.7 -mV
- Lipoprotein Surface Charge VLDL ([4]; 100 mg/ml): 4.1 -mV
- Lipoprotein Surface Charge HDL ([4]; 100 mg/ml): 10.9 -mV

Molecule: phosphatidylserine [PS]
- HDL charge (HDL; by 6 hours after 300 mg oral, from −10.9 mV before, 'over' = more negative): over −12 mV
- HDL charge (HDL; by 24 hours after 300 mg oral): −11.4 mV
